The numbers were not newly measured in US20250213575A1, “8-HETEROCYCLIC-3-(PHENYLSULFONYL)-[1,2,3]TRIAZOLO[1,5A]QUINAZOLIN-5(4H)-ONE DERIVATIVES AS ANTI-BACTERIALS” (priority 2022, published 2025), which cites them from elsewhere.

In this data set the test system is AgrA-regulated toxin gene transcription such as hla, psma and pvl. The settings on record: across all four agr groups; cited from earlier work.

As to `CC(C)c1ccc(S(=O)(=O)c2nnn3c2nc(O)c2ccccc23)cc1` [Savirin], the “modulation of AgrA-regulated toxin gene transcription” value is given as “potent modulator”.
